Values of other authors, collected in patent publication US20050085485A1, “Orally dispersible pharmaceutical piribedil composition” (priority 2002, published 2005).

Settings: humans

c1cnc(N2CCN(Cc3ccc4c(c3)OCO4)CC2)nc1 [piribedil, Piribedil]
period over which therapeutic levels are spread out (currently marketed prolonged-release form, 50 mg dose): more than 24 hours | bioavailability by the oral route (oral route in relation to the parenteral route): low
